Assay results taken from patent US20200197472A1, “COSMETIC COMPOSITIONS” (Mary Kay Inc., priority 2018, published 2020).

Columns and labels:
Assay type in all cases: cell-based
TNF-α = experiment: Inhibition of TNF-α production by PMA-treated human epidermal keratinocytes (ELISA)
Excerpt: The prototype ligand of the TNF superfamily, TNF-α, is a pleiotropic cytokine that plays a central role in inflammation. Increase in its expression is associated with an up regulation in pro-inflammatory activity. This bioassay was used to analyze the effect of tetradecyl aminobutyroylvalylaminobutyric urea trifluoroacetate, and/or Alteromonas ferment filtrate on the production of TNF-α by human epidermal keratinocytes. The endpoint of this assay was a spectrophotometric measurement that reflects the presence of TNF-α and cellular viability. The assay employed the quantitative sandwich enzyme immunoassay technique whereby a monoclonal antibody specific for TNF-α has been pre-coated onto a microplate. Standards and samples were pipetted into the wells and any TNF-α present was bound by the immobilized antibody. After washing away any unbound substances, an enzyme-linked polyclonal antibody specific for TNF-α was added to the wells. Following a wash to remove any unbound antibody-enzyme reagent, a substrate solution was added to the wells and color develops in proportion to the amount of TNF-α bound in the initial step using a microplate reader for detection at 450 nm. The color development was stopped and the intensity of the color can be measured. […]

procollagen peptide = experiment: Collagen stimulation: procollagen peptide production by human epidermal fibroblasts (ELISA); settings: for Collagen Production, Activity compared to control: human fibroblasts treated 3 days
Excerpt: Collagen is an extracellular matrix protein critical for skin structure. Increased synthesis of collagen helps improve skin firmness and elasticity. This bioassay was used to examine the effect of Alpinia galangal leaf extract, dihydroxymethyl chromone, tripeptide-1, Alteromonas ferment filtrate, Pisum Sativum (pea) extract, and/or TAUT on the production of procollagen peptide (a precursor to collagen) by human epidermal fibroblasts. The endpoint of this assay was a spectrophotometric measurement that reflects the presence of procollagen peptide and cellular viability. The assay employed the quantitative sandwich enzyme immunoassay technique whereby a monoclonal antibody specific for procollagen peptide had been pre-coated onto a microplate. Standards and samples were pipetted into the wells and any procollagen peptide present was bound by the immobilized antibody. After washing away any unbound substances, an enzyme-linked polyclonal antibody specific for procollagen peptide was added to the wells. Following a wash to remove any unbound antibody-enzyme reagent, a substrate solution was added to the wells and color develops in proportion to the amount of procollagen peptide bound in the initial step using a microplate reader for detection at 450 nm. The color development was stopped and the intensity of the color was measured.
For generation of samples and controls, subconfluent normal human adult epidermal fibroblasts (Cascade Biologics) cultivated in standard DMEM growth medium with 10% fetal bovine serum (Mediatech) at 37° C. in 10% CO2, were treated with each of the ingredients for 3 days. Following incubation, cell culture medium was collected and the amount of procollagen peptide secretion quantified using a sandwich enzyme linked immuno-sorbant assay (ELISA) from Takara (# MK101).

hyaluronic acid = experiment: Production of hyaluronic acid in adult human dermal fibroblasts (HDFa), ELISA; settings: for Hyaluronic Acid Production, Activity compared to control: HDFa cells, 24 hours
Experimental: Changes in the production of hyaluronic acid in human dermal fibroblasts due to each of Centella asiatica meristem cell culture, Alpinia galangal leaf extract, tripeptide-1, and TAUT were measured. Hyaluronic acid (HA) is a polysaccharide involved in stabilization of the structure of the matrix and is involved in providing turgor pressure to tissue and cells. As one non-limiting example, HA production in treated and non-treated adult human dermal fibroblasts (HDFa) cells was determined using the Hyaluronan DuoSet ELISA kit from R&D Systems (DY3614). In this assay, for production of samples, subconfluent HDFa cells from Cascade Biologics (C-13-5C) were incubated at 37° C. and 10% CO2 in starvation medium (0.15% fetal bovine serum and 1% Penicillin Streptomycin solution in Dulbecco's Modified Eagle Medium) for 72 hours prior to treatment. The cells were then incubated with fresh starvation medium with either test compound, positive control (phorbol 12-myristate 13-acetate from Sigma-Aldrich (P1585) and platelet derived growth factor from Sigma-Aldrich (P3201)), or no additive for 24 hours. Media was then collected and frozen at −80° C. until use in the ELISA assay.
Briefly, the ELISA assay employed a quantitative sandwich enzyme immunoassay technique whereby a capture antibody specific for HA can be pre-coated onto a microplate. Standards and media from treated and untreated cells were pipetted into the microplate wells to enable any HA present to be bound by the immobilized antibody. After washing away any unbound substances, an enzyme-linked detection antibody specific for HA was added to the wells. Following a wash to remove any unbound antibody-enzyme reagent, a substrate solution was added to the wells to allow color development in proportion to the amount of HA bound in the initial step. The color development was stopped at a specific time and the intensity of the color at 450 nm was measured using a microplate reader.

fibronectin = experiment: Fibronectin secretion by cultured human fibroblasts (ELISA); settings: 3 days, 1.0% final concentration
Excerpt: Laminin and fibronectin are major proteins in the dermal-epidermal junction (DEJ) (also referred to as the basement membrane). The DEJ is located between the dermis and the epidermis interlocks forming fingerlike projections called rete ridges. The cells of the epidermis receive their nutrients from the blood vessels in the dermis. The rete ridges increase the surface area of the epidermis that is exposed to these blood vessels and the needed nutrients. The DEJ provides adhesion of the two tissue compartments and governs the structural integrity of the skin. Laminin and fibronectin are two structural glycoproteins located in the DEJ. […] Laminin and fibronectin secretion was monitored by quantifying laminin and fibronectin in cell supernatants of cultured human fibroblasts treated for 3 days with culture medium with or without 1.0% final concentration of the test ingredient(s). Following incubation, laminin and fibronectin contents were measured using immunofluorescent antibodies directed against each protein in an enzyme linked immuno-sorbant assay (ELISA). Measurements were normalized for cellular metabolic activity, as determined by bioconversion of 3-(4,5-dimethylthiazol-2-yl)-5-(3-carboxymethoxyphenyl)-2-(4-sulfophenyl)-2H-tetrazolium (MTS).

Row | Compound | production of TNF-α (in words) (TNF-α) | TNF-α Production, Activity compared to control (TNF-α; compared to PMA, human keratinocytes, PMA 10 ng/ml, 6 hours) [%] | production of collagen (in words) (procollagen peptide) | Collagen Production, Activity compared to control (procollagen peptide) | production of hyaluronic acid (in words) (hyaluronic acid) | Hyaluronic Acid Production, Activity compared to control (hyaluronic acid) | Fibronectin Secretion, Activity compared to control (fibronectin)
1 | tetradecyl aminobutyroylvalylaminobutyric urea trifluoroacetate [TAUT] | inhibits | −100 | increases | +18% | increases | +64% | 
2 | Cc1cc(=O)c2c(O)cc(O)cc2o1 [dihydroxymethyl chromone] |  |  |  | +20% |  |  | +28%
3 | tripeptide-1 |  |  | increases | +20% | increases | +93% | 
